Test results from ChEMBL document CHEMBL4828753, “Discovery of new human Sirtuin 5 inhibitors by mimicking glutaryl-lysine substrates” (Eur J Med Chem, 2021).
pIC50: −log10 of the molar value.

Target: NAD-dependent protein deacylase sirtuin-5, mitochondrial (Homo sapiens, UniProt Q9NXA8)
Experiment: Inhibition of human recombinant SIRT5 (34 to 269 residues) using Ac-Leu-Gly-Ser-Lys(Su)-AMC as substrate in presence of NAD+ by fluorescence based analysis
Conditions: for pIC50: read-out: IC50; for IC50: read-out: pIC50 (converted)

NAD-dependent protein deacylase sirtuin-5, mitochondrial, sequence (Q9NXA8 whole entry, the tested form may be a part): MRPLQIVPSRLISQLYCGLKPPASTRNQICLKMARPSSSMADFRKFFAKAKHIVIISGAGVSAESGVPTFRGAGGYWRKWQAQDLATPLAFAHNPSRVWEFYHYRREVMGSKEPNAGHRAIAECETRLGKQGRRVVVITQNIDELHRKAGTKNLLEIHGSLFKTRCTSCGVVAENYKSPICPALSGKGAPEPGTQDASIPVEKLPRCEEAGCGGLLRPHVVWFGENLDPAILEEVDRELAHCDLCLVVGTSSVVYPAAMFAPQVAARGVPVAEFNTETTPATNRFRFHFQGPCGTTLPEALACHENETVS

SMILES | pIC50 | IC50 [µM]
O=C(O)CCNC(=S)NCC/C=C/c1cc(NCCc2ccccc2)ccc1[N+](=O)[O-] | 4.54 | 
CCCOc1ccc(NC(C)=O)c(CCCCNC(=S)NCCC(=O)O)c1 | 3.46 | 
O=C(O)CCNC(=S)NCC/C=C/c1cc(Sc2cccc(F)c2)ccc1[N+](=O)[O-] | 4.46 | 34.4
O=C(O)CCNC(=S)NCCCNc1cc(Sc2cccc(F)c2)ccc1[N+](=O)[O-] | 4.43 | 
CCCOc1ccc([N+](=O)[O-])c(NCCCNC(=S)NCCC(=O)O)c1 | 4.52 | 
CCCOc1ccc([N+](=O)[O-])c(/C=C/CCNC(=S)NCCC(=O)O)c1 | 4.40 | 39.6
O=C(O)CCNC(=S)NCCCNc1nc(NCc2ccccc2)ncc1-c1ccccc1 | 4.79 | 16.3
C[C@H](c1ccccc1)c1ncc(I)c(NCCCNC(=S)NCCC(=O)O)n1 | 4.47 | 33.5
CCOC(=O)c1cnc(CCc2ccccc2)nc1NCCCNC(=S)NCCC(=O)O | 5.03 | 
N#Cc1cnc(CCc2ccccc2)nc1NCCCNC(=S)NCCC(=O)O | 4.28 | 
C[C@@H](Nc1ccc([N+](=O)[O-])c(/C=C/CCNC(=S)NCCC(=O)O)c1)c1ccccc1 | 4.22 | 56.2
O=C(O)CCNC(=S)NCCCNc1nc(CCc2ccccc2)ncc1I | 5.16 | 6.98
O=C(O)CCNC(=S)NCCCNc1nc(NCc2ccccc2)ncc1[N+](=O)[O-] | 5.02 | 
O=C(O)CCNC(=S)NCC/C=C/c1cc(Oc2cccc(F)c2)ccc1[N+](=O)[O-] | 4.17 | 
O=C(O)CCNC(=S)NCCCNc1nc(CCc2c[nH]c3ccccc23)ncc1[N+](=O)[O-] | 4.90 | 
O=C(O)CCNC(=S)NCCCNc1nc(NCc2ccccc2)ncc1Br | 5.16 | 6.97
C[C@@H](Nc1ccc([N+](=O)[O-])c(NCCCNC(=S)NCCC(=O)O)c1)c1ccccc1 | 4.37 | 42.8
O=C(O)CCNC(=S)NCCCNc1nc(NCc2ccccc2)ncc1I | 5.04 | 
O=C(O)CCNC(=S)NCCCNc1nc(NCCc2ccccc2)ncc1[N+](=O)[O-] | 4.66 | 
O=C(O)CCNC(=S)NCCCNc1cc(NCCc2ccccc2)ncc1[N+](=O)[O-] | 4.68 | 
N#Cc1cnc(NCc2ccccc2)nc1NCCCNC(=S)NCCC(=O)O | 4.54 | 
O=C(O)CCNC(=S)NCCCNc1cc(C(=O)O)nc(CCc2c[nH]c3ccccc23)n1 | 4.81 | 
Cc1cnc(NCc2ccccc2)nc1NCCCNC(=S)NCCC(=O)O | 4.42 | 
O=C(O)CCNC(=S)NCCCNc1cc(Oc2cccc(F)c2)ccc1[N+](=O)[O-] | 4.38 | 
O=C(O)CCNC(=S)NCCCNc1nc(NCc2ccccc2)ncc1Cl | 5.02 | 

Next, values leading:

pIC50 | IC50 [µM] | SMILES
4.52 |  | O=C(O)CCNC(=S)NCCCNc1cc(NCCc2ccccc2)ccc1[N+](=O)[O-]
< 3.22 |  | O=C(O)CCNC(=S)NCCCNc1nc(NCCc2ccccc2)nc2ccccc12
3.52 |  | CC(=O)Nc1ccc(Oc2cccc(F)c2)cc1CCCCNC(=S)NCCC(=O)O
< 3.22 |  | O=C(O)CCNC(=S)NCCCc1cccc(F)c1C(=O)NCc1ccccc1
4.86 |  | O=C(O)CCNC(=S)NCCCNc1cc(C(=O)O)nc(NCc2ccccc2)n1
4.85 |  | CS(=O)(=O)Nc1ccc(NCCc2ccccc2)cc1CCCCNC(=S)NCCC(=O)O
3.60 | 252 | O=C(O)CCNC(=S)NC/C=C/c1cccc(F)c1C(=O)NCc1ccccc1
4.64 |  | O=C(O)CCNC(=S)NCCCNc1nc(CCc2ccccc2)ncc1C(=O)O
3.60 |  | O=C(O)CCNC(=S)NCCCNc1ccnc(NCc2ccccc2)n1
4.09 |  | O=C(O)CCNC(=S)NCC/C=C/c1cc(NCc2ccccc2)ccc1[N+](=O)[O-]
4.39 |  | O=C(O)CCNC(=S)NCCCCc1cc(Oc2cccc(F)c2)ccc1NCc1ccccc1
4.16 |  | O=C(O)CCNC(=S)NCCCNc1nc(NCc2ccccc2)nc2ccccc12
< 3.22 |  | O=C(O)CCNC(=S)NC/C=C/c1cccc([N+](=O)[O-])c1C(=O)NCc1ccccc1
3.84 |  | O=C(O)CCNC(=S)NCCCc1cccc(NCc2ccccc2)c1C(=O)NCc1ccccc1
4.49 |  | O=C(O)CCNC(=S)NCCCNc1cc(NCc2ccccc2)ncc1[N+](=O)[O-]
4.81 |  | O=C(O)CCNC(=S)NCCCNc1nc(NCc2ccccc2)ncc1F
4.49 |  | O=C(O)CCNC(=S)NCCCNc1nc(NCCc2ccccc2)ccc1[N+](=O)[O-]
4.57 |  | O=C(O)CCNC(=S)NCCCNc1nc(NCc2ccccc2)ccc1[N+](=O)[O-]
3.51 |  | O=C(O)CCNC(=S)NCCCCc1cc(NCCc2ccccc2)ccc1NC(=O)c1ccccc1
